The values that follow are results of earlier work, collected in patent US11957779B2, “Agent for dyeing keratinous material, containing aminosilicone, pigment and polysaccharide” (Henkel AG & Co. KGaA, priority 2019, dated 2024).

For series [1] the following is noted: 25° C.
For series [2] the following is noted: 5% solution in water.

The structures appear in SMILES notation.

As for `Nc1cc(S(=O)(=O)[O-])cc2cc(S(=O)(=O)[O-])c(N=Nc3ccccc3)c(O)c12.[Na+].[Na+]` [Acid Red 33, diantrium salt of 5-amino-4-hydroxy-3-(phenylazo)-naphthalene-2,7-disulphonate], in series [1], the solubility in water is 2500 µg/mL.

Turning to `O=S(=O)([O-])c1ccc(N=Nc2c(O)ccc3ccccc23)cc1.[Na+]` [Acid Orange 7, sodium salt of 4-[(2-hydroxy-1-naphthyl)azo]benzene sulphonate], the solubility in water result in series [1] is given as “more than 7 g/L”. Turning to `O=C([O-])c1c(Cl)c(Cl)c(Cl)c(Cl)c1-c1c2c(Br)cc(=O)c(Br)c-2oc2c(Br)c(O)cc(Br)c12.O=C([O-])c1c(Cl)c(Cl)c(Cl)c(Cl)c1-c1c2c(Br)cc(=O)c(Br)c-2oc2c(Br)c(O)cc(Br)c12.[Na+].[Na+]` [Acid Red 92, disodium salt of 3,4,5,6-tetrachloro-2-(1,4,5,8-tetrabromo-6-hydroxy-3-oxoxanthen-9-yl)benzoic acid], the solubility in water entry in series [1] is “greater than 10 g/L”. Take `O=C([O-])C1=NN(c2ccc(S(=O)(=O)[O-])cc2)C(=O)C1N=Nc1ccc(S(=O)(=O)[O-])cc1.[Na+].[Na+].[Na+]` (stereo not drawn) [Acid Yellow 23, trisodium salt of 4,5-dihydro-5-oxo-1-(4-sulfophenyl)-4-((4-sulfophenyl)azo)-1H-pyrazole-3-carboxylic acid]: the “solubility in water (in words)” value in series [1] was “highly soluble”. In the case of `CCN(Cc1cccc(S(=O)(=O)[O-])c1)c1ccc(C(=C2C=CC(=[N+](CC)Cc3cccc(S(=O)(=O)[O-])c3)C=C2)c2ccccc2S(=O)(=O)[O-])cc1.[Na+].[Na+]` [Acid Blue 9], the solubility in water result in series [1] is “more than 20 wt. %”. Consider `O=P([O-])(O)O.[K+]` [Potassium dihydrogen phosphate], for which the pH value result in series [2] is recorded as “about 4.4”.
